How the values were obtained:
[1] = target: T1, ALDH1A2 (Homo sapiens, UniProt O94788); test: Selectivity biochemical assay, NAD(P)H-Glo Detection System
T1 construct: His-tag; made in house; host or cells: E. coli Rosetta (DE3)
T1 sequence (O94788 1-518): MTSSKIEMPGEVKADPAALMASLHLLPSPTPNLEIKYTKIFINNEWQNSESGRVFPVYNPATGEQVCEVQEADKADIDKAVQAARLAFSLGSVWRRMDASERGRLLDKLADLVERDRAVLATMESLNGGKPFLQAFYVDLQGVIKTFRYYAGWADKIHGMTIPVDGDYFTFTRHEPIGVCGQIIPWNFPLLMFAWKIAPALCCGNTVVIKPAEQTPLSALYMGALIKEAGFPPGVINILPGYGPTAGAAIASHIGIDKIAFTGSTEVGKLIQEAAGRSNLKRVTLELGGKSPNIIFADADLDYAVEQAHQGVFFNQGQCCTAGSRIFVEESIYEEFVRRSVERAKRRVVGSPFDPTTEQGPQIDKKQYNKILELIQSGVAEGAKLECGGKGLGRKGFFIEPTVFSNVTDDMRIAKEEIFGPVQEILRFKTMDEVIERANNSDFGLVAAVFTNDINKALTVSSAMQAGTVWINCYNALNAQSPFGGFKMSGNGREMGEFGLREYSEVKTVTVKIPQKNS
Summary of the method: (§1)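 Recombinant full-length His-tagged human enzymes expressed in E. coli were pre-incubated 30 min at room temperature with compound (10-point, 3-fold series; top 20 μM for ALDH1A3, 250 μM for ALDH1A1/1A2). Propionaldehyde and NAD were then added at Km; NADH was read by NAD(P)H-Glo luminescence. Buffer: Tris (pH 7.6 for 1A1/1A2, 9.0 for 1A3), 1 mM TCEP, 0.01% Tween-20.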

[2] = target: T2, ALDH1A3 (Homo sapiens, UniProt P47895); test: Primary biochemical assay, NAD(P)H-Glo Detection System; parameters: His-tag; made in house; host or cells: E. coli Rosetta (DE3); settings: 30 min pre-incubation, propionaldehyde and NAD at Km
T2 sequence (P47895 1-512): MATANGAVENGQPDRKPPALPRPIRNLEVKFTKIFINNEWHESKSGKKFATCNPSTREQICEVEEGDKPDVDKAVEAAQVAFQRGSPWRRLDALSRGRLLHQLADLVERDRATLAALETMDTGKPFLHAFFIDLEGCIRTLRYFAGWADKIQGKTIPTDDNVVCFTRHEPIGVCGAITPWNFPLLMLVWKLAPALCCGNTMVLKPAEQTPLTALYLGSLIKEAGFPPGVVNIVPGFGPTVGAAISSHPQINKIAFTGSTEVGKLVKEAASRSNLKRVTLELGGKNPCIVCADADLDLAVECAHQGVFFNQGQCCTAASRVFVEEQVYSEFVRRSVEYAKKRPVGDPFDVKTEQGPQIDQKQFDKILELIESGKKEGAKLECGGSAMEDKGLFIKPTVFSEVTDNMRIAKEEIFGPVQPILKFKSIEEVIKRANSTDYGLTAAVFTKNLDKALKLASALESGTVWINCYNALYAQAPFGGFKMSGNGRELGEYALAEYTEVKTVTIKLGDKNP
Summary of the method: as §1

## O=C1CCc2cc(OCCN3CCCC3c3cccnc3)ccc2N1 (centres unmarked) [ALDHI-2005, 6-[2-[2-(3-pyridyl)pyrrolidin-1-yl]ethoxy]-3,4-dihydro-1H-quinolin-2-one]
[1]
  IC50: 10 to 100 µM
[2]
  IC50: < 0.1 µM

## O=C1CCc2cc(OCCN3CC(F)(F)CC3c3cccc(F)c3)ccc2N1 (centres unmarked) [ALDHI-2053, 6-[2-[4,4-difluoro-2-(3-fluorophenyl)pyrrolidin-1-yl]ethoxy]-3,4-dihydro-1H-quinolin-2-one]
[1]
  IC50: 1 to 10 µM
[2]
  IC50: < 0.1 µM

## O=C1CCc2cc(OCCN3CC(O)CC3c3cccc(F)c3)ccc2N1 (mixture of isomers) [ALDHI-2035, 6-[2-[2-(3-fluorophenyl)-4-hydroxy-pyrrolidin-1-yl]ethoxy]-3,4-dihydro-1H-quinolin-2-one]
[1]
  IC50: 0.1 to 1 µM
[2]
  IC50: < 0.1 µM

## O=C1CSc2cc(OCCN3CCCC3c3cccc(F)c3)ccc2N1 (centres unmarked) [ALDHI-2008, 7-[2-[2-(3-fluorophenyl)pyrrolidin-1-yl]ethoxy]-4H-1,4-benzothiazin-3-one]
[1]
  IC50: 10 to 100 µM
[2]
  IC50: < 0.1 µM

Reference: patent US20240174634A1, “Aldehyde Dehydrogenase Inhibitors and Their Therapeutic Use” (priority 2020, published 2024)
